Source: BindingDB's records for patent US20240425513 (Carmot Therapeutics, 2024)

Molecular target: T1, Ubiquitin carboxyl-terminal hydrolase 28 (Homo sapiens, UniProt Q96RU2)
T1 sequence (Q96RU2 whole entry): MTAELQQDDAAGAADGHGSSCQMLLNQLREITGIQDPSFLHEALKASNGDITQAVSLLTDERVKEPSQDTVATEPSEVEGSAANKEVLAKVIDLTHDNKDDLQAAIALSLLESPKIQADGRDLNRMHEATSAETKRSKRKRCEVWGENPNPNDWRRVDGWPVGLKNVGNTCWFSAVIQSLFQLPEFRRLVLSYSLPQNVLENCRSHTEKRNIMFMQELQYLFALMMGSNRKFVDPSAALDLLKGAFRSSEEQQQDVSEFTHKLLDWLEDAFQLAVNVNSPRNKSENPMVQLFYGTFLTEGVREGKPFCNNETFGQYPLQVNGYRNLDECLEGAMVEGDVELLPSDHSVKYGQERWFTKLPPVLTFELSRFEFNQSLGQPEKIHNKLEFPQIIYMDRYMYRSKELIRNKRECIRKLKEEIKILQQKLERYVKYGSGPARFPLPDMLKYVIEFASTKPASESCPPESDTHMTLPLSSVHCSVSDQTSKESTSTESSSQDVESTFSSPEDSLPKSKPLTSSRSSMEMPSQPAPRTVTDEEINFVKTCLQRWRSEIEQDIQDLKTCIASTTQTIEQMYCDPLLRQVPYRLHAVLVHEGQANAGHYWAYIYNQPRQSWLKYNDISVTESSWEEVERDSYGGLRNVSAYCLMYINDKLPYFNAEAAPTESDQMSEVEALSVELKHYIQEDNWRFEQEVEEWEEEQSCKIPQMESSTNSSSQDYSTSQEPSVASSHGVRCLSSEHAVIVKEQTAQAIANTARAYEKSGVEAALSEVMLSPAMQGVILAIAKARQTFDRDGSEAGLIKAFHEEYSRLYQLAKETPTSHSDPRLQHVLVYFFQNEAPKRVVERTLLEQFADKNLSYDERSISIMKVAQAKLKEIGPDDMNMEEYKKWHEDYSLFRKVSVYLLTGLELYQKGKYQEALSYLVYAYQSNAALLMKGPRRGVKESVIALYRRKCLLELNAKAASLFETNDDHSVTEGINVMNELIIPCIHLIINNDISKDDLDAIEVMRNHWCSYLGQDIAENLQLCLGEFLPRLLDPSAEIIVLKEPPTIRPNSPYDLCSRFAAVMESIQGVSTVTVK
Assay: Ubiquitin-Rhodamine 110 Assay
Description: Enzyme (His6 USP28, BostonBiochem, #E-570) concentration and incubation times were optimized for the maximal signal to background while maintaining the initial velocity conditions at a fixed substrate concentration. […] 2 μl of 4× enzyme was added to assay plates (pre stamped with compound) and incubated for 2 h at room temperature. […] of 4× substrate was subsequently added to the assay plates and incubated for 2 h at room temperature.

IC50: > 1000 nM
SMILES: CC(Oc1ccc(-c2nc(Cc3cccc(Cl)c3)no2)cc1)C(=O)N[C@@H]1C[C@@H](C)N(C#N)C1 (stereo partly specified) [US20240425513, Example 11]
